Reference: patent publication EP2832348B1, “METHOD FOR DISSOLVING FLAVONOID COMPOUND, CARBON GLYCOSIDE COMPOUND, OR STILBENE COMPOUND AND METHOD FOR PREPARING AN INJECTION OR A POWDER FOR INJECTION” (Kunming Pharmaceutical Corp., priority 2012, dated 2013)
In brackets after ≈: the same amount, converted by molar mass.

Tests used:
[1] = Dissolving the compound with solubilizer in heated, vacuum-stirred water for injection under nitrogen or argon gas (preparation tank); type: physicochemical; settings: kept at 80 °C, nitrogen gas
Experimental: In view of this, the present invention provides a method for dissolving a carbon glycoside compound or a stilbene compound, characterized in that the method comprises the following steps: • heating water for injection to 80-98 °C, followed by stirring under vacuum condition at 30-80 °C, and then adding the carbon glycoside compound or the stilbene compound along with a solubilizer under the protection of nitrogen gas or argon gas to obtain a solution of said compounds; • wherein the solubilizer is one or a mixture of two or more of gastrodin, water-soluble cyclodextrin and ethanol, and wherein the water-soluble cyclodextrin is one or a mixture of two or more of methyl-β-cyclodextrin, thioether-β-cyclodextrin and sulfobutyl ether-β-cyclodextrin; and • wherein the mass ratio of the carbon glycoside compound or the stilbene compound to the solubilizer is 1:1-20.
Disclosed is a method for dissolving a flavonoid compound, a carbon glycoside compound or a stilbene compound, including: • mixing the flavonoid compound, the carbon glycoside compound or the stilbene compound with a solubilizer to obtain a reactant; and • heating water for injection to 80-98 °C, followed by stirring under vacuum conditions at 30-80 °C, and then adding the reactant under the protection of nitrogen gas or argon gas to obtain a solution of the reactant.
Considering the sensitivity to heat or light of the flavonoid compound, the carbon glycoside compound or the stilbene compound, a method is provided by heating water for injection to 80-98 °C to remove dissolved oxygen and other gases in water, which reduces the surface tension of water, increases the contact area of water with the flavonoid compound, the carbon glycoside compound or the stilbene compound, thus increasing the dissolution speed. Meanwhile, pre-heating the water for injection can effectively avoid degradation of the flavonoid compound, the carbon glycoside compound or the stilbene compound due to exposure to the dissolved oxygen, to eliminate unstable factors of the flavonoid compound, the carbon glycoside compound or the stilbene compound. The vacuum conditions can achieve further deoxygenation, facilitating the dissolution of the flavonoid compound, the carbon glycoside compound or the stilbene compound in water. Nitrogen gas or argon gas provides an inert atmosphere, which further reduces the surface tension of the materials, increases the contact area of the flavonoid compound, the carbon glycoside compound or the stilbene compound with water, and increases the dissolution speed.

[2] = Solubility of triptophenolide in aqueous solutions with different concentrations of gastrodin and/or water-soluble cyclodextrin; type: physicochemical; settings: aqueous solution of solubilizer
From the text: Table 1. Solubility of triptophenolide in aqueous solutions with different concentrations of gastrodin and/or water-soluble cyclodextrin

## OC[C@H]1O[C@@H](Oc2cc(/C=C/c3cc(O)cc(O)c3)ccc2O)[C@H](O)[C@@H](O)[C@@H]1O
[1]; Example 35: 5 g with Gastrodin 80 g in 1000 ml, water heated to 95 °C, vacuum stirring 10 minutes
  dissolved in (time): about 5 minutes
[1]; Example 36: 20 g with Gastrodin 200 g in 1000 ml, water heated to 95 °C, vacuum stirring 10 minutes
  dissolved in (time): about 5 minutes
[1]; Example 37: 10 g with Gastrodin 80 g in 1000 ml, water heated to 95 °C, vacuum stirring 10 minutes
  dissolved in (time): about 5 minutes
[1]; Example 38: 25 g with Gastrodin 80 g, Hydroxypropyl-β-cyclodextrin 30 g in 1000 ml, water heated to 95 °C, vacuum stirring 10 minutes
  dissolved in (time): about 5 minutes
[1]; Example 47: 5 g with Methyl-β-cyclodextrin 30 g in 1000 ml, water heated to 88 °C, vacuum stirring 40 minutes
  dissolved in (time): about 5 minutes
[1]; Example 51: 10 g with Methyl-β-cyclodextrin 30 g in 1000 ml, water heated to 95 °C, vacuum stirring 10 minutes
  dissolved in (time): about 5 minutes
[1]; Example 52: 10 g with Thioether-β-cyclodextrin 30 g in 1000 ml, water heated to 95 °C, vacuum stirring 10 minutes
  dissolved in (time): about 5 minutes
[1]; Example 55: 10 g with Methyl-β-cyclodextrin 50 g in 1000 ml, water heated to 95 °C, vacuum stirring 10 minutes
  dissolved in (time): about 5 minutes
[1]; Example 58: 20 g with Hydroxypropyl-β-cyclodextrin 50 g in 1000 ml, water heated to 95 °C, vacuum stirring 10 minutes
  dissolved in (time): about 5 minutes
[1]; Example 59: 20 g with Methyl-β-cyclodextrin 50 g in 1000 ml, water heated to 95 °C, vacuum stirring 10 minutes
  dissolved in (time): about 5 minutes
[1]; Example 61: 20 g with Sulfobutyl ether-β-cyclodextrin 50 g in 1000 ml, water heated to 95 °C, vacuum stirring 10 minutes
  dissolved in (time): about 5 minutes
[1]; Example 63: 5 g with Gastrodin 100 g in 1000 ml, water heated to 95 °C, vacuum stirring 10 minutes
  dissolved in (time): about 5 minutes
[1]; Example 65: 5 g with Gastrodin 100 g in 1000 ml, water heated to 95 °C, vacuum stirring 10 minutes
  dissolved in (time): about 5 minutes
[1]; Example 68: 50 g with Hydroxypropyl-β-cyclodextrin 80 g in 1000 ml, water heated to 95 °C, vacuum stirring 10 minutes
  dissolved in (time): about 5 minutes
[1]; Example 69: 50 g with Methyl-β-cyclodextrin 80 g in 1000 ml, water heated to 95 °C, vacuum stirring 10 minutes
  dissolved in (time): about 5 minutes
[1]; Example 70: 50 g with Thioether-β-cyclodextrin 80 g in 1000 ml, water heated to 95 °C, vacuum stirring 10 minutes
  dissolved in (time): about 5 minutes
[1]; Example 71: 50 g with Sulfobutyl ether-β-cyclodextrin 80 g (formula; text: hydroxypropyl-β-cyclodextrin) in 1000 ml, water heated to 95 °C, vacuum stirring 10 minutes
  dissolved in (time): about 5 minutes
[1]; Example 72: 50 g with Hydroxypropyl-β-cyclodextrin 80 g in 1000 ml, water heated to 95 °C, vacuum stirring 10 minutes
  dissolved in (time): about 5 minutes
[1]; Example 73: 50 g with Hydroxypropyl-β-cyclodextrin 80 g in 1000 ml, water heated to 95 °C, vacuum stirring 10 minutes
  dissolved in (time): about 5 minutes
[1]; Example 74: 5 g with Gastrodin 0.5 g in 1000 ml, water heated to 95 °C, vacuum stirring 10 minutes
  dissolved in (time): about 5 minutes
[1]; Example 80: 10 g with Hydroxypropyl-β-cyclodextrin 30 g in 1000 ml, water heated to 95 °C, vacuum stirring 10 minutes
  dissolved in (time): about 5 minutes
[2]; aqueous with cosolvent or surfactant or cyclodextrin, Gastrodin concentration 1 %
  solubility: 3.19 mg/mL (≈ 7.85 mM)
[2]; aqueous with cosolvent or surfactant or cyclodextrin, Gastrodin concentration 3 %
  solubility: 5.1 mg/mL (≈ 12.5 mM)
[2]; aqueous with cosolvent or surfactant or cyclodextrin, Gastrodin concentration 5 %
  solubility: 7.11 mg/mL (≈ 17.5 mM)
[2]; aqueous with cosolvent or surfactant or cyclodextrin, Gastrodin concentration 8 %
  solubility: 9.17 mg/mL (≈ 22.6 mM)
[2]; aqueous with cosolvent or surfactant or cyclodextrin, Gastrodin concentration 10 %
  solubility: 11.4 mg/mL (≈ 28.1 mM)
[2]; aqueous with cosolvent or surfactant or cyclodextrin, Gastrodin concentration 15 %
  solubility: 11.8 mg/mL (≈ 28.9 mM)
[2]; aqueous with cosolvent or surfactant or cyclodextrin, Gastrodin concentration 25 %
  solubility: 38.4 mg/mL (≈ 94.4 mM)
[2]; aqueous with cosolvent or surfactant or cyclodextrin, Gastrodin concentration 30 %
  solubility: 60.4 mg/mL (≈ 149 mM)
[2]; aqueous with cosolvent or surfactant or cyclodextrin, Gastrodin concentration 35 %
  solubility: 87.8 mg/mL (≈ 216 mM)
[2]; aqueous with cosolvent or surfactant or cyclodextrin, Gastrodin concentration 40 %
  solubility: 85.1 mg/mL (≈ 209 mM)
[2]; aqueous with cosolvent or surfactant or cyclodextrin, Gastrodin concentration 45 %
  solubility: 98 mg/mL (≈ 241 mM)
[2]; aqueous with cosolvent or surfactant or cyclodextrin, Gastrodin concentration 50 %
  solubility: 105 mg/mL (≈ 258 mM)
[2]; aqueous with cosolvent or surfactant or cyclodextrin, Hydroxypropyl-β-cyclodextrin concentration 1 %
  solubility: 4.8 mg/mL (≈ 11.8 mM)
[2]; aqueous with cosolvent or surfactant or cyclodextrin, Hydroxypropyl-β-cyclodextrin concentration 3 %
  solubility: 10.8 mg/mL (≈ 26.5 mM)
[2]; aqueous with cosolvent or surfactant or cyclodextrin, Hydroxypropyl-β-cyclodextrin concentration 5 %
  solubility: 20 mg/mL (≈ 49.3 mM)
[2]; aqueous with cosolvent or surfactant or cyclodextrin, Hydroxypropyl-β-cyclodextrin concentration 8 %
  solubility: 26.1 mg/mL (≈ 64.3 mM)
[2]; aqueous with cosolvent or surfactant or cyclodextrin, Hydroxypropyl-β-cyclodextrin concentration 10 %
  solubility: 34.1 mg/mL (≈ 83.9 mM)
[2]; aqueous with cosolvent or surfactant or cyclodextrin, Hydroxypropyl-β-cyclodextrin concentration 15 %
  solubility: 43.3 mg/mL (≈ 106 mM)
[2]; aqueous with cosolvent or surfactant or cyclodextrin, Hydroxypropyl-β-cyclodextrin concentration 20 %
  solubility: 59.2 mg/mL (≈ 146 mM)
[2]; aqueous with cosolvent or surfactant or cyclodextrin, Hydroxypropyl-β-cyclodextrin concentration 25 %
  solubility: 64.3 mg/mL (≈ 158 mM)
[2]; aqueous with cosolvent or surfactant or cyclodextrin, Hydroxypropyl-β-cyclodextrin concentration 30 %
  solubility: 116 mg/mL (≈ 286 mM)
[2]; aqueous with cosolvent or surfactant or cyclodextrin, Hydroxypropyl-β-cyclodextrin concentration 35 %
  solubility: 159 mg/mL (≈ 392 mM)
[2]; aqueous with cosolvent or surfactant or cyclodextrin, Hydroxypropyl-β-cyclodextrin concentration 40 %
  solubility: 189 mg/mL (≈ 464 mM)
[2]; aqueous with cosolvent or surfactant or cyclodextrin, Hydroxypropyl-β-cyclodextrin concentration 45 %
  solubility: 181 mg/mL (≈ 444 mM)
[2]; aqueous with cosolvent or surfactant or cyclodextrin, Hydroxypropyl-β-cyclodextrin concentration 50 %
  solubility: 183 mg/mL (≈ 451 mM)
[2]; aqueous with cosolvent or surfactant or cyclodextrin, Solubilizer concentration: Gastrodin 0 %, Hydroxypropyl-β-cyclodextrin 3 %
  solubility: 10.8 mg/mL (≈ 26.5 mM)
[2]; aqueous with cosolvent or surfactant or cyclodextrin, Solubilizer concentration: Gastrodin 1 %, Hydroxypropyl-β-cyclodextrin 3 %
  solubility: 14.8 mg/mL (≈ 36.4 mM)
[2]; aqueous with cosolvent or surfactant or cyclodextrin, Solubilizer concentration: Gastrodin 3 %, Hydroxypropyl-β-cyclodextrin 3 %
  solubility: 16.2 mg/mL (≈ 39.9 mM)
[2]; aqueous with cosolvent or surfactant or cyclodextrin, Solubilizer concentration: Gastrodin 5 %, Hydroxypropyl-β-cyclodextrin 3 %
  solubility: 22.6 mg/mL (≈ 55.6 mM)
[2]; aqueous with cosolvent or surfactant or cyclodextrin, Solubilizer concentration: Gastrodin 8 %, Hydroxypropyl-β-cyclodextrin 3 %
  solubility: 30.9 mg/mL (≈ 76.1 mM)
[2]; aqueous with cosolvent or surfactant or cyclodextrin, Solubilizer concentration: Gastrodin 10 %, Hydroxypropyl-β-cyclodextrin 3 %
  solubility: 39.8 mg/mL (≈ 98 mM)
[2]; aqueous with cosolvent or surfactant or cyclodextrin, Solubilizer concentration: Gastrodin 15 %, Hydroxypropyl-β-cyclodextrin 3 %
  solubility: 56 mg/mL (≈ 138 mM)
[2]; aqueous with cosolvent or surfactant or cyclodextrin, Solubilizer concentration: Gastrodin 20 %, Hydroxypropyl-β-cyclodextrin 3 %
  solubility: 107 mg/mL (≈ 264 mM)
[2]; aqueous with cosolvent or surfactant or cyclodextrin, Solubilizer concentration: Gastrodin 25 %, Hydroxypropyl-β-cyclodextrin 3 %
  solubility: 127 mg/mL (≈ 312 mM)
[2]; aqueous with cosolvent or surfactant or cyclodextrin, Solubilizer concentration: Gastrodin 30 %, Hydroxypropyl-β-cyclodextrin 3 %
  solubility: 181 mg/mL (≈ 446 mM)
[2]; aqueous with cosolvent or surfactant or cyclodextrin, Solubilizer concentration: Gastrodin 35 %, Hydroxypropyl-β-cyclodextrin 3 %
  solubility: 233 mg/mL (≈ 574 mM)
[2]; aqueous with cosolvent or surfactant or cyclodextrin, Solubilizer concentration: Gastrodin 40 %, Hydroxypropyl-β-cyclodextrin 3 %
  solubility: 197 mg/mL (≈ 485 mM)
[2]; aqueous with cosolvent or surfactant or cyclodextrin, Solubilizer concentration: Gastrodin 45 %, Hydroxypropyl-β-cyclodextrin 3 %
  solubility: 187 mg/mL (≈ 460 mM)
[2]; aqueous with cosolvent or surfactant or cyclodextrin, Solubilizer concentration: Gastrodin 50 %, Hydroxypropyl-β-cyclodextrin 3 %
  solubility: 188 mg/mL (≈ 463 mM)
[2]; water, Gastrodin concentration 0 %
  solubility: 1.75 mg/mL (≈ 4.31 mM)
[2]; water, Hydroxypropyl-β-cyclodextrin concentration 0 %
  solubility: 1.75 mg/mL (≈ 4.31 mM)
